Test results published in patent publication US11840686B2, “Modulation of prekallikrein (PKK) expression” (Ionis Pharmaceuticals, Inc., priority 2013, dated 2023).
Strand notation (5' to 3'): a small letter for the sugar, then the base; units joined by * are phosphorothioate-linked, units joined directly phosphodiester-linked; [ ] holds rarer units or linkages, { } end groups; capitals alone tell only the bases. e = 2'-O-(2-methoxyethyl) (MOE); [5mC] = 5-methylcytosine; d = 2'-deoxy (DNA)

Each substance was assayed on human PKK mRNA (assay: Antisense inhibition of human PKK mRNA in HepaRG cells, 5,000 nM (Example 2)). Settings: HepaRG cells, electroporation, 5,000 nM antisense oligonucleotide, approx. 24 hours, primer probe set RTS3454, relative to untreated control cells; Table 11.
Type: cell-based
Method in brief: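 Percent inhibition of PKK mRNA is relative to untreated control, with qRT-PCR (probe set RTS3454) values adjusted to total RNA by RIBOGREEN. Oligonucleotides, fully phosphorothioate 2′-MOE gapmers, were delivered at 5,000 nM by electroporation into 20,000 HepaRG cells/well for about 24 h.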
In the case of “547490 (antisense eG*eT*eA*eG*eA*d[5mC]*dA*d[5mC]*d[5mC]*dA*dG*dG*dT*dT*dG*e[5mC]*eT*e[5mC]*e[5mC]*e[5mC]) [compound 547490]”, the “% inhibition” value is reported as 55%.
With “547491 (antisense e[5mC]*eA*eT*eG*eT*dA*d[5mC]*dT*d[5mC]*dA*dG*d[5mC]*dG*dA*d[5mC]*eT*eT*eT*eG*eG) [compound 547491]” the “% inhibition” value was 47%.
For “547492 (antisense e[5mC]*eA*eG*eT*e[5mC]*d[5mC]*dA*dT*dG*dT*dA*d[5mC]*dT*d[5mC]*dA*eG*e[5mC]*eG*eA*e[5mC]) [compound 547492]”, the “% inhibition” value was 62%.
With “547494 (antisense eT*eG*eG*eT*eG*dA*d[5mC]*dT*dG*d[5mC]*dA*dT*d[5mC]*dT*dG*eA*eG*e[5mC]*eT*eT) [compound 547494]” the “% inhibition” value was 70%.
In the case of “547495 (antisense eG*e[5mC]*eT*eG*eG*dT*dG*dA*d[5mC]*dT*dG*d[5mC]*dA*dT*d[5mC]*eT*eG*eA*eG*e[5mC]) [compound 547495]”, the “% inhibition” value is reported as 61%.
For “547496 (antisense eA*eT*eG*e[5mC]*eT*dG*dG*dT*dG*dA*d[5mC]*dT*dG*d[5mC]*dA*eT*e[5mC]*eT*eG*eA) [compound 547496]”, the “% inhibition” value was 80%.
With “547497 (antisense eA*e[5mC]*eT*eG*e[5mC]*dT*dT*d[5mC]*dT*d[5mC]*dA*dT*dG*d[5mC]*dT*eG*eG*eT*eG*eA) [compound 547497]” the “% inhibition” value was 68%.
For “547498 (antisense e[5mC]*eT*eG*eG*eA*d[5mC]*dT*dG*d[5mC]*dT*dT*d[5mC]*dT*d[5mC]*dA*eT*eG*e[5mC]*eT*eG) [compound 547498]”, the “% inhibition” value was 44%.
With “547499 (antisense e[5mC]*eT*e[5mC]*eT*eG*dG*dA*d[5mC]*dT*dG*d[5mC]*dT*dT*d[5mC]*dT*e[5mC]*eA*eT*eG*e[5mC]) [compound 547499]” the “% inhibition” value was 65%.
In the case of “547500 (antisense e[5mC]*e[5mC]*eT*eA*eG*dA*d[5mC]*dT*d[5mC]*dT*dG*dG*dA*d[5mC]*dT*eG*e[5mC]*eT*eT*e[5mC]) [compound 547500]”, the “% inhibition” value is reported as 65%.
With “547501 (antisense eA*eT*eT*eG*e[5mC]*d[5mC]*dT*dA*dG*dA*d[5mC]*dT*d[5mC]*dT*dG*eG*eA*e[5mC]*eT*eG) [compound 547501]” the “% inhibition” value was 55%.
For “547502 (antisense eT*e[5mC]*eA*eG*eG*dT*dT*dG*dT*dA*dA*dA*dA*dA*dT*eT*eG*e[5mC]*e[5mC]*eT) [compound 547502]”, the “% inhibition” value was 64%.
With “547503 (antisense eA*e[5mC]*eT*e[5mC]*eA*dG*dG*dT*dT*dG*dT*dA*dA*dA*dA*eA*eT*eT*eG*e[5mC]) [compound 547503]” the “% inhibition” value was 66%.
For “547504 (antisense eG*eA*eA*e[5mC]*eT*d[5mC]*dA*dG*dG*dT*dT*dG*dT*dA*dA*eA*eA*eA*eT*eT) [compound 547504]”, the “% inhibition” value was 37%.
In the case of “547505 (antisense eG*eA*e[5mC]*eT*eT*dG*dA*dA*d[5mC]*dT*d[5mC]*dA*dG*dG*dT*eT*eG*eT*eA*eA) [compound 547505]”, the “% inhibition” value is reported as 69%.
For “547506 (antisense eA*eG*eG*e[5mC]*eT*d[5mC]*dA*dG*dA*dA*dT*dT*dT*dG*dA*e[5mC]*eT*eT*eG*eA) [compound 547506]”, the “% inhibition” value was 78%.
“547507 (antisense e[5mC]*eA*eG*eG*e[5mC]*dT*d[5mC]*dA*dG*dA*dA*dT*dT*dT*dG*eA*e[5mC]*eT*eT*eG) [compound 547507]” was tested, and the “% inhibition” value was 56%.
In the case of “547508 (antisense e[5mC]*e[5mC]*e[5mC]*e[5mC]*eA*dG*dG*d[5mC]*dT*d[5mC]*dA*dG*dA*dA*dT*eT*eT*eG*eA*e[5mC]) [compound 547508]”, the “% inhibition” value is reported as 69%.
“547509 (antisense e[5mC]*e[5mC]*e[5mC]*e[5mC]*e[5mC]*d[5mC]*dA*dG*dG*d[5mC]*dT*d[5mC]*dA*dG*dA*eA*eT*eT*eT*eG) [compound 547509]” was tested, and the “% inhibition” value was 58%.
In the case of “547510 (antisense eA*eT*eG*eA*eG*dG*dA*d[5mC]*d[5mC]*d[5mC]*d[5mC]*d[5mC]*d[5mC]*dA*dG*eG*e[5mC]*eT*e[5mC]*eA) [compound 547510]”, the “% inhibition” value is reported as 40%.
For “547511 (antisense eG*eA*eT*eG*eA*dG*dG*dA*d[5mC]*d[5mC]*d[5mC]*d[5mC]*d[5mC]*d[5mC]*dA*eG*eG*e[5mC]*eT*e[5mC]) [compound 547511]”, the “% inhibition” value was 53%.
With “547512 (antisense eG*e[5mC]*eA*eG*eA*dT*dG*dA*dG*dG*dA*d[5mC]*d[5mC]*d[5mC]*d[5mC]*e[5mC]*e[5mC]*eA*eG*eG) [compound 547512]” the “% inhibition” value was 74%.
For “547513 (antisense eT*eG*e[5mC]*eA*eG*dA*dT*dG*dA*dG*dG*dA*d[5mC]*d[5mC]*d[5mC]*e[5mC]*e[5mC]*e[5mC]*eA*eG) [compound 547513]”, the “% inhibition” value was 72%.
For “547515 (antisense eA*eG*eA*eA*eG*dA*dT*dG*d[5mC]*d[5mC]*dA*d[5mC]*dT*d[5mC]*dT*e[5mC]*e[5mC]*eA*eT*eG) [compound 547515]”, the “% inhibition” value was 58%.
With “547516 (antisense eG*eA*eT*eG*e[5mC]*dA*dA*dA*dG*dA*dA*dG*dA*dT*dG*e[5mC]*e[5mC]*eA*e[5mC]*eT) [compound 547516]” the “% inhibition” value was 48%.
“547517 (antisense eT*eA*eG*eG*eA*dT*dG*d[5mC]*dA*dA*dA*dG*dA*dA*dG*eA*eT*eG*e[5mC]*e[5mC]) [compound 547517]” was tested, and the “% inhibition” value was 57%.
“547518 (antisense eT*e[5mC]*e[5mC]*eT*eT*dA*dG*dG*dA*dT*dG*d[5mC]*dA*dA*dA*eG*eA*eA*eG*eA) [compound 547518]” was tested, and the “% inhibition” value was 51%.
With “547519 (antisense e[5mC]*e[5mC]*eA*eG*eA*d[5mC]*dA*dT*dT*dG*dT*d[5mC]*d[5mC]*dT*d[5mC]*eA*eG*e[5mC]*eA*eG) [compound 547519]” the “% inhibition” value was 76%.
For “547521 (antisense e[5mC]*eT*eT*e[5mC]*eA*dG*d[5mC]*d[5mC]*dA*dG*dA*d[5mC]*dA*dT*dT*eG*eT*e[5mC]*e[5mC]*eT) [compound 547521]”, the “% inhibition” value was 58%.
In the case of “547522 (antisense eG*eA*eA*eA*eG*d[5mC]*dG*dG*dG*d[5mC]*dT*dT*d[5mC]*dA*dG*e[5mC]*e[5mC]*eA*eG*eA) [compound 547522]”, the “% inhibition” value is reported as 73%.
For “547523 (antisense eT*eT*eG*eT*e[5mC]*dA*dG*d[5mC]*d[5mC]*d[5mC]*d[5mC]*dT*dG*dG*dT*eT*eA*e[5mC]*eG*eG) [compound 547523]”, the “% inhibition” value was 69%.
In the case of “547524 (antisense e[5mC]*eA*eT*eT*eG*dT*d[5mC]*dA*dG*d[5mC]*d[5mC]*d[5mC]*d[5mC]*dT*dG*eG*eT*eT*eA*e[5mC]) [compound 547524]”, the “% inhibition” value is reported as 58%.
With “547525 (antisense e[5mC]*e[5mC]*eT*e[5mC]*eG*d[5mC]*dA*dT*dT*dG*dT*d[5mC]*dA*dG*d[5mC]*e[5mC]*e[5mC]*e[5mC]*eT*eG) [compound 547525]” the “% inhibition” value was 78%.
In the case of “547526 (antisense eG*e[5mC]*eG*eA*e[5mC]*d[5mC]*dT*d[5mC]*dG*d[5mC]*dA*dT*dT*dG*dT*e[5mC]*eA*eG*e[5mC]*e[5mC]) [compound 547526]”, the “% inhibition” value is reported as 59%.
In the case of “547527 (antisense e[5mC]*eT*e[5mC]*eA*eG*dT*dT*dG*d[5mC]*dG*dA*d[5mC]*d[5mC]*dT*d[5mC]*eG*e[5mC]*eA*eT*eT) [compound 547527]”, the “% inhibition” value is reported as 58%.
In the case of “547528 (antisense e[5mC]*eA*e[5mC]*eA*eG*dT*d[5mC]*dA*dT*dG*dG*dA*dG*dA*dT*e[5mC]*eT*e[5mC]*eA*eG) [compound 547528]”, the “% inhibition” value is reported as 78%.

Same assay, conditions: HepaRG cells, electroporation, 5,000 nM antisense oligonucleotide, approx. 24 hours, primer probe set RTS3454, relative to untreated control cells; Table 12
“547529 (antisense eA*e[5mC]*eA*e[5mC]*eA*d[5mC]*dA*dG*dT*d[5mC]*dA*dT*dG*dG*dA*eG*eA*eT*e[5mC]*eT) [compound 547529]” was tested, and the “% inhibition” value was 49%.
With “547530 (antisense eA*e[5mC]*eA*eA*e[5mC]*dA*d[5mC]*dA*d[5mC]*dA*dG*dT*d[5mC]*dA*dT*eG*eG*eA*eG*eA) [compound 547530]” the “% inhibition” value was 63%.
With “547531 (antisense eT*eT*eA*eT*eT*dT*d[5mC]*dA*d[5mC]*dA*dA*d[5mC]*dA*d[5mC]*dA*e[5mC]*eA*eG*eT*e[5mC]) [compound 547531]” the “% inhibition” value was 69%.
With “547532 (antisense e[5mC]*eT*eG*e[5mC]*e[5mC]*dA*dA*d[5mC]*dA*dG*dT*dT*dT*d[5mC]*dA*eA*e[5mC]*eT*eT*eT) [compound 547532]” the “% inhibition” value was 65%.
“547533 (antisense eT*eT*eT*eT*eG*d[5mC]*dT*dT*dG*dG*d[5mC]*dT*dT*d[5mC]*dA*eA*eT*eA*eT*eT) [compound 547533]” was tested, and the “% inhibition” value was 23%.
For “547534 (antisense eA*eT*e[5mC]*eT*eG*dA*d[5mC]*dT*dA*dG*dT*dG*dA*dA*dT*eG*eG*e[5mC]*eT*eT) [compound 547534]”, the “% inhibition” value was 72%.
In the case of “547535 (antisense eA*eG*eA*e[5mC]*eA*dG*d[5mC]*d[5mC]*d[5mC]*dA*d[5mC]*d[5mC]*dA*dA*d[5mC]*eA*eA*eT*e[5mC]*eT) [compound 547535]”, the “% inhibition” value is reported as 28%.
In the case of “547536 (antisense eT*eG*e[5mC]*eA*eT*dA*dG*dA*d[5mC]*d[5mC]*d[5mC]*d[5mC]*dA*dA*d[5mC]*eA*eG*eA*e[5mC]*eA) [compound 547536]”, the “% inhibition” value is reported as 48%.
With “547537 (antisense e[5mC]*e[5mC]*eT*eG*eT*dG*d[5mC]*dA*dT*dA*dG*dA*d[5mC]*d[5mC]*d[5mC]*e[5mC]*eA*eA*e[5mC]*eA) [compound 547537]” the “% inhibition” value was 65%.
“547538 (antisense e[5mC]*e[5mC]*eA*eG*e[5mC]*dA*dG*dA*dA*dA*dT*d[5mC]*d[5mC]*dT*dG*eT*eG*e[5mC]*eA*eT) [compound 547538]” was tested, and the “% inhibition” value was 77%.
With “547539 (antisense eA*eG*eA*eA*e[5mC]*dT*d[5mC]*d[5mC]*dA*dG*d[5mC]*dA*dG*dA*dA*eA*eT*e[5mC]*e[5mC]*eT) [compound 547539]” the “% inhibition” value was 43%.
